Test results as given in PubChem BioAssay AID330 (DTP/NCI, 2004).
Where “and” joins values, the source holds several entries; their conditions need not be identical. Equal values may be shown once. Inconclusive results and toxic doses are left out. The calls were made as follows: active = survival T/C of 150% or more; inactive = T/C below 125% in these data. Bridge positions count the residues as written; N and C are the ends. Square brackets hold non-standard residues; d marks the D form. Peptide text beside a SMILES is read from it. * marks the point of attachment. Cya = N[CH](CS(=O)(=O)O)C(=O)O; X6 = CC(C)CCCCCCCC(O)CC(=O)*; GABA = NCCCC(=O)O

Test system: P388 leukemia ip, CD2F1 mice, survival T/C
Assay: NCI In Vivo Anticancer Drug Screen. Data for tumor model P388 Leukemia (intraperitoneal) in CD2F1 (CDF1) mice
Details: endpoint: median survival time, higher = longer survival
Procedure, shortened: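 Mice carrying the transplanted tumor received test compound or vehicle. Survival was recorded in each group, and the value is the treated-group measurement divided by that of the vehicle-treated control group.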

[1] = dose: 50.0 mg/kg/injection, schedule: Q01DX009 (ip), vehicle: saline with Tween-80
[2] = dose: 100.0 mg/kg/injection, schedule: Q01DX009 (ip), vehicle: saline with Tween-80
[3] = dose: 50.0 mg/kg/injection, schedule: Q01DX009 (ip), vehicle: saline
[4] = dose: 100.0 mg/kg/injection, schedule: Q01DX009 (ip), vehicle: saline
[5] = dose: 200.0 mg/kg/injection, schedule: Q01DX009 (ip), vehicle: saline
[6] = dose: 12.5 mg/kg/injection, schedule: Q01DX009 (ip), vehicle: Klucel (hydroxypropylcellulose) (HPC)
[7] = dose: 25.0 mg/kg/injection, schedule: Q01DX009 (ip), vehicle: Klucel (hydroxypropylcellulose) (HPC)
[8] = dose: 100.0 mg/kg/injection, schedule: Q04DX003 (ip), vehicle: saline with Tween-80
[9] = dose: 25.0 mg/kg/injection, schedule: Q01DX009 (ip), vehicle: saline with Tween-80
[10] = dose: 50.0 mg/kg/injection, schedule: Q01DX009 (ip), vehicle: Klucel (hydroxypropylcellulose) (HPC)
[11] = dose: 100.0 mg/kg/injection, schedule: Q01DX009 (ip), vehicle: Klucel (hydroxypropylcellulose) (HPC)
[12] = dose: 200.0 mg/kg/injection, schedule: Q01DX009 (ip), vehicle: saline with Tween-80
[13] = dose: 50.0 mg/kg/injection, schedule: Q01DX005 (ip), vehicle: saline with Tween-80
[14] = dose: 100.0 mg/kg/injection, schedule: Q01DX005 (ip), vehicle: saline with Tween-80
[15] = dose: 200.0 mg/kg/injection, schedule: Q01DX005 (ip), vehicle: saline with Tween-80

Measured: T/C

COc1c(O)c(O)c2c(c1O)C(=O)c1cc(C)cc(O)c1C2=O
inactive: dose: 5.0 mg/kg/injection, schedule: Q01DX009 (ip), vehicle: saline with Tween-80 99 % of control | dose: 10.0 mg/kg/injection, schedule: Q01DX009 (ip), vehicle: saline with Tween-80 103 % of control | dose: 20.0 mg/kg/injection, schedule: Q01DX009 (ip), vehicle: saline with Tween-80 105 % of control

CC(C)(CO)CBr
inactive: dose: 100.0 mg/kg/injection, schedule: Q01DX009 (ip), vehicle: saline sonified 100 % of control | dose: 200.0 mg/kg/injection, schedule: Q01DX009 (ip), vehicle: saline sonified 95 % of control | dose: 400.0 mg/kg/injection, schedule: Q01DX009 (ip), vehicle: saline sonified 95 % of control

CC1(O)Cc2c(O)c3c(c(O)c2CC1O)C(=O)C=CC3=O (stereo not drawn)
inactive: dose: 3.13 mg/kg/injection, schedule: Q04DX003 (ip), vehicle: distilled water + Tween-80 100 % of control | dose: 6.25 mg/kg/injection, schedule: Q04DX003 (ip), vehicle: distilled water + Tween-80 100 % of control | dose: 12.5 mg/kg/injection, schedule: Q04DX003 (ip), vehicle: distilled water + Tween-80 97 % of control | dose: 25.0 mg/kg/injection, schedule: Q04DX003 (ip), vehicle: distilled water + Tween-80 100 % of control and 96 % of control

CC(C)CCCCCCCC(O)CC(=O)NC(CS(=O)(=O)O)C(=O)NC(CC(C)C)C(=O)NCCCC(=O)NC(Cc1cnc[nH]1)C(=O)NC(C)C(=O)NC1C(=O)NC(C(C)O)C(=O)NC(Cc2cnc[nH]2)C(=O)NC(C)C(=O)NC(C(C)O)C(=O)OC1C (stereo not drawn) (X6-[Cya]L[GABA]HATTHAT; ester 6-C; configuration not given here)
inactive: dose: 0.38 mg/kg/injection, schedule: Q01DX005 (ip), vehicle: other 95 % of control | dose: 0.75 mg/kg/injection, schedule: Q01DX005 (ip), vehicle: other 102 % of control | dose: 1.5 mg/kg/injection, schedule: Q01DX005 (ip), vehicle: other 100 % of control | dose: 3.0 mg/kg/injection, schedule: Q01DX005 (ip), vehicle: other 100 % of control | dose: 6.0 mg/kg/injection, schedule: Q01DX005 (ip), vehicle: other 99 % of control

CC(C)(C)N=C(c1ccccc1)N1CCCCC1
inactive: [1] 100 % of control | [2] 90 % of control

COP(=O)(OC)OC.COP(=O)(OC)OC.COP(=O)(OC)OC.COP(=O)(OC)OC.COP(=O)(OC)OC.COP(=O)(OC)OC.[Mn+2].[O-][Cl+3]([O-])([O-])O
inactive: [3] 99 % of control and 100 % of control | [4] 111 % of control | [5] 109 % of control | dose: 400.0 mg/kg/injection, schedule: Q01DX009 (ip), vehicle: saline 123 % of control

C[n+]1ccc(CC(Cc2cc[n+](C)cc2)c2ccc(Br)cc2)cc1
inactive: dose: 6.25 mg/kg/injection, schedule: Q01DX009 (ip), vehicle: Klucel (hydroxypropylcellulose) (HPC) 110 % of control | [6] 110 % of control | [7] 108 % of control

Cc1nc(N)c2nc(SCc3ccc(Cl)cc3)c(N)nc2n1
inactive: dose: 25.0 mg/kg/injection, schedule: Q04DX003 (ip), vehicle: saline with Tween-80 100 % of control | dose: 50.0 mg/kg/injection, schedule: Q04DX003 (ip), vehicle: saline with Tween-80 90 % of control | [8] 92 % of control

CC1=C[P+](c2ccccc2)(c2ccccc2)C=C(C)O1
inactive: dose: 3.12 mg/kg/injection, schedule: Q01DX005 (ip), vehicle: saline 96 % of control | dose: 6.25 mg/kg/injection, schedule: Q01DX005 (ip), vehicle: saline 105 % of control | dose: 12.5 mg/kg/injection, schedule: Q01DX005 (ip), vehicle: saline 105 % of control

COc1ccccc1C1NC(c2ccccc2OC)C2CCCC1C2O (stereo not drawn)
inactive: dose: 100.0 mg/kg/injection, schedule: Q04DX003 (ip), vehicle: saline 98 % of control | dose: 200.0 mg/kg/injection, schedule: Q04DX003 (ip), vehicle: saline 97 % of control | dose: 400.0 mg/kg/injection, schedule: Q04DX003 (ip), vehicle: saline 95 % of control

C=CC[N+](CC=C)(CC=C)CC[N+](CC=C)(CC=C)CC=C
inactive: dose: 12.5 mg/kg/injection, schedule: Q01DX009 (ip), vehicle: saline with Tween-80 97 % of control | [9] 101 % of control | [1] 105 % of control

COP(=O)(OC)C1(C(C)(C)C)CO1 (stereo not drawn)
inactive: [10] 99 % of control | [11] 88 % of control | dose: 200.0 mg/kg/injection, schedule: Q01DX009 (ip), vehicle: Klucel (hydroxypropylcellulose) (HPC) 94 % of control

O=C1CCSC(=S)N1c1ccc(N=Nc2ccccc2)cc1
inactive: [3] 105 % of control | [4] 110 % of control | [5] 110 % of control

[CH3][Sn]([c]1ccccc1)([c]1cccc2ccccc12)[c]1cccc2ccccc12
inactive: [8] 89 % of control | dose: 200.0 mg/kg/injection, schedule: Q04DX003 (ip), vehicle: saline with Tween-80 91 % of control | dose: 400.0 mg/kg/injection, schedule: Q04DX003 (ip), vehicle: saline with Tween-80 88 % of control

CC1=CC(C)(C)NC(=S)N1c1cccc2ccccc12
inactive: [9] 116 % of control | [1] 103 % of control | [2] 110 % of control | [12] 113 % of control

COc1ccc2c3c(ccc2c1)C(=O)/C(=C\O)CC3
inactive: dose: 12.5 mg/kg/injection, schedule: Q01DX005 (ip), vehicle: Klucel (hydroxypropylcellulose) (HPC) 103 % of control | dose: 25.0 mg/kg/injection, schedule: Q01DX005 (ip), vehicle: Klucel (hydroxypropylcellulose) (HPC) 93 % of control | dose: 50.0 mg/kg/injection, schedule: Q01DX005 (ip), vehicle: Klucel (hydroxypropylcellulose) (HPC) 95 % of control and 97 % of control

O=C(/C=C/c1ccccc1)c1ccccc1
inactive: [6] 100 % of control | [7] 105 % of control | [10] 100 % of control | [11] 108 % of control

N#CCCN(CCCN1CCOCC1)CN1C(=O)c2ccccc2C1=O
inactive: [10] 98 % of control | [11] 91 % of control | dose: 400.0 mg/kg/injection, schedule: Q01DX009 (ip), vehicle: Klucel (hydroxypropylcellulose) (HPC) 99 % of control

O=S(=O)(O)C(Nc1cccc(Cl)c1)c1ccccc1 (stereo not drawn)
inactive: [1] 97 % of control | [2] 95 % of control | [12] 103 % of control

COc1nc(N=[N+]=[N-])nc(-c2c(OC)ccc3ccccc23)n1
inactive: dose: 25.0 mg/kg/injection, schedule: Q01DX005 (ip), vehicle: saline with Tween-80 105 % of control | [13] 96 % of control | [14] 89 % of control | [15] 89 % of control

C1CSCCSCCCSCCSC1
inactive: [9] 91 % of control | [1] 106 % of control and 90 % of control | [2] 91 % of control and 92 % of control | [12] 96 % of control | dose: 400.0 mg/kg/injection, schedule: Q01DX009 (ip), vehicle: saline with Tween-80 91 % of control

CCc1cn[nH]c(=O)c1
inactive: [3] 110 % of control | [4] 96 % of control | [5] 104 % of control

COc1cc(Cc2cnc(N)nc2N)cc(OC)c1OC
inactive: [13] 100 % of control | [14] 99 % of control | [15] 100 % of control | dose: 400.0 mg/kg/injection, schedule: Q01DX005 (ip), vehicle: saline with Tween-80 100 % of control

CC(=Nc1c(C)noc1/C=C/c1ccccc1)NO
inactive: dose: 12.5 mg/kg/injection, schedule: Q04DX002 (ip), vehicle: saline with Tween-80 104 % of control | dose: 25.0 mg/kg/injection, schedule: Q04DX002 (ip), vehicle: saline with Tween-80 97 % of control | dose: 50.0 mg/kg/injection, schedule: Q04DX002 (ip), vehicle: saline with Tween-80 95 % of control | dose: 100.0 mg/kg/injection, schedule: Q04DX002 (ip), vehicle: saline with Tween-80 87 % of control

CCCCOc1ccc(-c2c(COC(=O)NC)c(COC(=O)NC)c(C)n2C)cc1
inactive: dose: 7.5 mg/kg/injection, schedule: Q01DX009 (ip), vehicle: distilled water + Tween-80 120 % of control
